This experiment deals with THP-1 CD14. In words: THP-1 CD14 Screening Assay. The note with it: THP-1 cells treated with PMA and compound (5-point 10-fold dilution), human CD14 ELISA on media. In kind it is cell-based. On the procedure:
THP-1 CD14 Screening Assay Protocol:
5×10^4 THP-1 cells were plated per well in a tissue culture-treated 96-well plate. At the time of plating, cells were treated with a final concentration of […] PMA and 0.04% DMSO vehicle, concominant with compounds in a 5-point 10-fold dilution per compound. Cells were treated with PMA and DMSO as a control for differentiation without compound treatment, and with only DMSO as a control for no differentiation and no compound treatment. 500 nM IACS-71432 was added as a control compound across all assay plates.
After incubation at 37° C./5% CO2 for 72 hr, media was collected from the cells and the screening assay was performed using the commercially-available human CD14 SimpleStep ELISA kit from Abcam, according to the following protocol: • 1) ELISA kits were taken out to equilibrate to rt. • 2) Following the protocol listed in the kit, standards were prepared as 1:1 dilutions from 2 ng/ml. • 3) Following the protocol listed in the kit, antibody cocktail was prepared (the volume is contingent on the number of wells required). • 4) 50 μl of standards were added to the appropriate wells, thoroughly mizing the standards before adding to each well. • 5) 25 μl of Sample Diluent (from kit) was added to all sample wells. • 6) Cell plates were centrifuged for 5 min at 300 rcf, with slow acceleration and slow deceleration. • 7) 25 μl of media from cell plates was transferred to assay plates containing standards. • 8) 50 μl of antibody cocktail was added to all of the wells, standards and samples. • 9) Assay plates were sealed tightly and incubated on the plate shaker at 400 rpm for 1 hr at rt. • 10) Wash buffer was prepared following the protocol listed in the kit. • 11) After the hour incubation, assay plates were washed 5 times using 200 μl wash buffer per well per wash. • 12) 100 μl of TMB substrate was added to each well in the dark and incubated on the shaker for 3-4.min, at which point color development was monitored to ensure a robust signal for detection but to avoid oversaturation of signal, for no longer than 10 min. • 13) The absorbance at 607 nm was read on a Perkin Elmer Envision plate reader. • 14) Data was processed using Microsoft Excel and GraphPad Prism.
For orientation: ELISA stands for enzyme-linked immunosorbent assay.

pIC50: −log10 of the molar value. A value given as a limit tells only on which side of the number the result lay.

The pIC50 is −log10 of the IC50, conventionally taken in molar units.

In turn, `Cc1cnccc1-c1ccc(S(=O)(=O)NCc2ccncc2)cc1` [Example 39, 4-(3-methylpyridin-4-yl)-N-(pyridin-4-ylmethyl)-benzenesulfonamide] had a pIC50 (Homo sapiens, THP-1, 72 h) of over 8.30. Consider `O=S(=O)(NCc1ccncc1)c1ccc(-c2ncccc2Cl)cc1` [Example 43, 4-(3-chloropyridin-2-yl)-N-(pyridin-4-ylmethyl)-benzenesulfonamide], for which the pIC50 (Homo sapiens, THP-1, 72 h) is over 8.30. The same measure, in the same setting: next, `O=S(=O)(NCc1ccncc1)c1ccc(C2CCCC2)cc1` [Example 2, 4-cyclopentyl-N-(pyridin-4-ylmethyl)benzenesulfonamide]: over 8.30. Same read-out and setting: next, `O=S(=O)(NCc1ccncc1)c1ccc(-c2ccc3c(c2)OCO3)cc1` [Example 53, 4-(benzo[d][1,3]dioxol-5-yl)-N-(pyridin-4-ylmethyl)-benzenesulfonamide]: over 8.30; `O=S(=O)(NCc1ccncc1)c1ccc(-c2ccc3ncnc(O)c3c2)cc1` [Example 54, 4-(4-hydroxyquinazolin-6-yl)-N-(pyridin-4-ylmethyl)-benzenesulfonamide]: 6.30 to 7.00; `O=S(=O)(NCc1ccncc1)c1ccc(-c2cccnc2)cc1` [Example 4, 4-(pyridin-3-yl)-N-(pyridin-4-ylmethyl)benzenesulfonamide]: 6.30 to 7.00. Turning to `O=c1[nH]ccc2cc(-c3ccc(S(=O)(=O)NCc4ccncc4)cc3)ccc12` [Example 50, 4-(1-oxo-1,2-dihydro-isoquinolin-6-yl)-N-(pyridin-4-ylmethyl)-benzenesulfonamide], where the note is “Homo sapiens, THP-1, 72 h”, the pIC50 is 6.30 to 7.00. As to `Cn1ncc2cc(-c3ccc(S(=O)(=O)NCc4ccncc4)cc3)ccc21` [Example 44, 4-(1-methyl-1H-indazol-5-yl)-N-(pyridin-4-ylmethyl)-benzenesulfonamide], the negative-log IC50 (pIC50) (Homo sapiens, THP-1, 72 h) was over 8.30.

Regarding `Nc1cc(CNS(=O)(=O)c2ccc(C3CCCCC3)cc2)ccn1` [Example 9, N-((2-aminopyridin-4-yl)methyl)-4-cyclohexylbenzenesulfonamide], the negative-log IC50 (pIC50) (Homo sapiens, THP-1, 72 h) is over 8.30. Same read-out and setting: next, `Cc1cc(-c2ccc(S(=O)(=O)NCc3ccncc3)cc2)ccn1` [Example 40, 4-(2-methylpyridin-4-yl)-N-(pyridin-4-ylmethyl)-benzenesulfonamide]: over 8.30. Still for that read-out and setting: next, `O=S(=O)(NCc1ccncc1)c1ccc(-c2ccc3ccoc3c2)cc1` [Example 51, 4-(benzofuran-6-yl)-N-(pyridin-4-ylmethyl)-benzenesulfonamide]: over 8.30.

For the setting “Homo sapiens, THP-1, 72 h”, `O=S(=O)(Nc1cccc2cnccc12)c1ccc(C2CCOCC2)cc1` [Example 7, N-(Isoquinolin-5-yl)-4-(tetrahydro-2H-pyran-4-yl)enzenesulfonamide] showed a negative-log IC50 (pIC50) of over 8.30. Same read-out and setting: next, `O=S(=O)(NCc1ccncc1)c1ccc(N2CCCC(F)(F)C2)cc1` [Example 27, 4-(3,3-difluoropiperidin-1-yl)-N-(pyridin-4-ylmethyl)-benzenesulfonamide]: 7.00 to 8.30. `Cc1nc2cc(-c3ccc(S(=O)(=O)NCc4ccncc4)cc3)ccc2s1` [49 (b), 4-(2-methyl-benzo[d]thiazol-5-yl)-N-(pyridin-4-ylmethyl)-benzenesulfonamide] had a pIC50 (72 hr) of 6.30 to 7.00. As to `O=S(=O)(NCc1ccncc1)c1ccc(N2CCC(F)(F)CC2)cc1` [Example 23, 4-(4,4-difluoropiperidin-1-yl)-N-(pyridin-4-ylmethyl)-benzenesulfonamide], the negative-log IC50 (pIC50) (Homo sapiens, THP-1, 72 h) is 7.00 to 8.30. On the same count and under the same terms, next, `O=S(=O)(NCc1ccncc1)c1ccc(N2CCCC(F)C2)cc1` (stereo not shown) [Example 30, 4-(3-fluoropiperidin-1-yl)-N-(pyridin-4-ylmethyl)-benzenesulfonamide]: 7.00 to 8.30. For the molecule `O=C1NCc2ccc(-c3ccc(S(=O)(=O)NCc4ccncc4)cc3)cc21` [Example 57, 4-(3-oxoisoindolin-5-yl)-N-(pyridin-4-ylmethyl)-benzenesulfonamide], the pIC50 (Homo sapiens, THP-1, 72 h) was 7.00 to 8.30. Same read-out and setting: next, `O=S(=O)(NCc1ccncc1)c1ccc(C2=CCC(F)(F)CC2)cc1` [Example 14, 4′,4′-difluoro-N-(pyridin-4-ylmethyl)-2′,3′,4′,5′-tetrahydro-[1,1′-biphenyl]-4-sulfonamide]: over 8.30; `CC1(C)CCN(c2ccc(S(=O)(=O)NCc3ccncc3)cc2)C1` [Example 26, 4-(3,3-dimethylpyrrolidin-1-yl)-N-(pyridin-4-yl-methyl)benzenesulfonamide]: 7.00 to 8.30; `Cn1ncc2c(NS(=O)(=O)c3ccc(C4CCCCC4)cc3)cccc21` [Example 63, 4-cyclohexyl-N-(1-methyl-1H-indazol-4-yl)benzenesulfonamide]: over 8.30. Same read-out and setting: next, `O=S(=O)(Nc1cccc2cnccc12)c1ccc(C2CCCCC2)cc1` [Example 6, 4-Cyclohexyl-N-(isoquinolin-5-yl)benzenesulfonamide]: over 8.30; `O=S(=O)(NCc1ccncc1)c1ccc(N2CCC(F)(F)C2)cc1` [Example 29, 4-(3,3-difluoropyrrolidin-1-yl)-N-(pyridin-4-ylmethyl)-benzenesulfonamide]: 7.00 to 8.30. Same read-out and setting: next, `CC(=O)Nc1cc(CNS(=O)(=O)c2ccc(C3CCCCC3)cc2)ccn1` [Example 10, N-(4-(((4-cyclohexylphenyl)sulfonamido)methyl)pyridin-2-yl)acetamide]: 7.00 to 8.30; `O=S(=O)(NCc1ccncc1)c1ccc(-c2ccccc2)cc1` [Example 37, N-(pyridin-4-ylmethyl)-[1,1′-biphenyl]-4-sulfonamide]: over 8.30; `O=S(=O)(NCc1ccncc1)c1ccc(C2CCCOC2)cc1` (stereo not shown) [Example 17, N-(pyridin-4-ylmethyl)-4-(tetrahydro-2H-pyran-3-yl)-benzenesulfonamide]: over 8.30. Under “Homo sapiens, THP-1, 72 h”, `O=S(=O)(NCc1ccncc1)c1ccc(-c2ccc3cc[nH]c3c2)cc1` [Example 58, 4-(1H-indol-6-yl)-N-(pyridin-4-ylmethyl)-benzenesulfonamide] had a pIC50 of over 8.30. For the molecule `CC1(C)CN(c2ccc(S(=O)(=O)NCc3ccncc3)cc2)C1` [Example 32, 4-(3,3-dimethylazetidin-1-yl)-N-[(pyridin-4-yl)methyl]benzene-1-sulfonamide], for the setting “Homo sapiens, THP-1, 72 h”, the negative logarithm of the IC50 (pIC50) is 7.00 to 8.30. The same measure, in the same setting: next, `CC1(C)CCN(c2ccc(S(=O)(=O)NCc3ccncc3)cc2)CC1` [Example 36, 4-(4,4-dimethylpiperidin-1-yl)-N-(pyridin-4-ylmethyl)-benzenesulfonamide]: over 8.30; `Cc1nc2cc(-c3ccc(S(=O)(=O)NCc4ccncc4)cc3)ccc2o1` [Example 47, 4-(2-methyl-benzo[d]oxazol-5-yl)-N-(pyridin-4-ylmethyl)-benzenesulfonamide]: over 8.30. `Cc1ccnc(-c2ccc(S(=O)(=O)NCc3ccncc3)cc2)c1` [Example 41, 4-(4-methylpyridin-2-yl)-N-(pyridin-4-ylmethyl)-benzenesulfonamide] gave a negative logarithm of the IC50 (pIC50) (Homo sapiens, THP-1, 72 h) of over 8.30. Under “Homo sapiens, THP-1, 72 h”, `O=S(=O)(NCc1ccncc1)c1ccc(-c2cccc(Cl)n2)cc1` [Example 5, 4-(6-chloropyridin-2-yl)-N-(pyridin-4-ylmethyl)benzenesulfonamide] had a pIC50 of 6.30 to 7.00.

For the origin of these results see patent publication US20240043384A1, “INHIBITORS OF PU.1 FOR THE TREATMENT OF DISEASE” (Board of Regents, The University of Texas System, priority 2021, published 2024).
